Laboratory results from patent US8815857B2 (Boehringer Ingelheim International GmbH, priority 2011, dated 2014).
Converted amounts (≈) assume the structure as drawn.

Legend:
[1] = Assessment of solubility: HT solubility in pION buffer, UV spectrophotometry; settings: kinetic from dmso stock
[2] = target: T1, human soluble guanylate cyclase alpha 1 and beta 1 subunits (sGC) stably expressed in Chinese hamster ovary cells (Homo sapiens, UniProt Q02108+Q02153); test: sGC cellular activator assay: cGMP in CHO cells expressing human sGC, preincubated with ODQ; format: cell-based; settings: 40 microM ODQ preincubation, 30 min at room temperature, presence or absence of 50% human serum not given, read-out: EC50 nM, Activity of Compounds in Cellular Assay
T1 construct: expressed in transfected cells; host or cells: Chinese hamster ovary cells, stably transfected
T1 sequence (Q02108 1-690 partner): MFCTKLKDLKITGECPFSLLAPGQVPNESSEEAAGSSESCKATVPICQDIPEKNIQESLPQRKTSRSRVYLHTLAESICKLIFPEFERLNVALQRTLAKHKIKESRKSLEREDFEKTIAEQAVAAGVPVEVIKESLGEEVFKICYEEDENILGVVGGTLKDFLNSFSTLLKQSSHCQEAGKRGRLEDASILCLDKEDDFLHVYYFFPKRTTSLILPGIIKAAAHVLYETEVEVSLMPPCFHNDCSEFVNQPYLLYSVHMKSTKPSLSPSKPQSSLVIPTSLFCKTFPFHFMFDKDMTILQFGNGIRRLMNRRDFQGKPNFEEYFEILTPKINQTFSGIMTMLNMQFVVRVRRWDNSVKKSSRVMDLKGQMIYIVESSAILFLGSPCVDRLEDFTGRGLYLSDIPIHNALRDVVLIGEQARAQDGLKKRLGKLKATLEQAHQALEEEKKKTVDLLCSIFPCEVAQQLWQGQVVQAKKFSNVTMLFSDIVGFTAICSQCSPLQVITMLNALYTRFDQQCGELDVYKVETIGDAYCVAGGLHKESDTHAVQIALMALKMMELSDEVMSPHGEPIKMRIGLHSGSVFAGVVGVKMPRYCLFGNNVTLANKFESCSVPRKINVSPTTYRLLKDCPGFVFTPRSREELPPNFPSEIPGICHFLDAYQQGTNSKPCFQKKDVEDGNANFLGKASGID
T1 sequence (Q02153 1-619): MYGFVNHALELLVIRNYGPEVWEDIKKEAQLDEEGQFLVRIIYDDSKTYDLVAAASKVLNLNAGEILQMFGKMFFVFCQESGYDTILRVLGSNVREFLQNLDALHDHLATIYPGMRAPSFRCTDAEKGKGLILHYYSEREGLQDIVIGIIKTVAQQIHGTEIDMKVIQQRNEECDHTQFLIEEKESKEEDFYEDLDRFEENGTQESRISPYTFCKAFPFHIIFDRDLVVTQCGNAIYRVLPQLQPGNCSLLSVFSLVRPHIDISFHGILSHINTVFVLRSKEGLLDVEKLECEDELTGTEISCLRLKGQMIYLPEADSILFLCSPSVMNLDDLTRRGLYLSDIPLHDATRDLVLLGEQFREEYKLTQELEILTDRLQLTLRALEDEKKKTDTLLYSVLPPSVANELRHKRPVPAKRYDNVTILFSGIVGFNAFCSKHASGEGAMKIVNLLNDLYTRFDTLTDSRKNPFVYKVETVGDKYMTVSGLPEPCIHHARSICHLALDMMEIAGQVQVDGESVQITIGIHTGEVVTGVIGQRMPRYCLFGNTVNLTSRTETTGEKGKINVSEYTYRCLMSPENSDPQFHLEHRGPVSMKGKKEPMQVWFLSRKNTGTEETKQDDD
Method: The sGC cellular activator assay is performed in the presence and absence of 50% human serum (HS) using Chinese hamster ovary cells that have been stably transfected to express the human soluble guanylate cyclase alpha 1 and beta 1 subunits (sGC). Cells are preincubated with 40 microM 1H-[1,2,4]oxadiazolo[4,3-a]quinoxalin-1-one (ODQ), an sGC inhibitor, for one hour in buffer containing 0.1% bovine serum albumin and 3-isobutyl-1-methylxanthine (IBMX). Concentration response curves are prepared for test compounds in DMSO. An intermediate dilution of the compounds is performed in either buffer containing IBMX or type AB HS containing IBMX. Diluted compounds are added to cells and they are incubated at room temperature for thirty minutes. cGMP is measured using a CisBio homogeneous time resolved fluorescence kit and the EC50 is calculated for each compound.

[3] = pH 6.8, aqueous buffer, Solubility (pH 6.8), pH 6.8
[4] = pION system solution buffer, pH 4.5, pH 4.5, aqueous buffer, Solubility (pH 4.5), pH 4.5 buffer, 16-19 h incubation, 1.0% DMSO
[5] = pION system solution buffer, pH 7.4, pH 7.4, aqueous buffer, Solubility (pH 7.4), pH 7.4 buffer, 16-19 h incubation, 1.0% DMSO

Row | Compound | solubility [1, 3] [µg/mL] | solubility [1, 4] [µg/mL] | solubility [1, 5] [µg/mL] | EC50 [2] [nM]
1 | Cc1ccc(OCc2ccc(CN3CCN(C)C(=O)C3)cc2C)c(-c2csc(N3C[C@H]4CC[C@@H](C3)[C@@]4(C)C(=O)O)n2)c1 [Compound 269] | 16 (≈ 27.2 µM) | 0.28 (≈ 0.476 µM) | – | 9.5
2 | Cc1ccc(OCc2ccc(CN3CCOCC3)cc2C)c(-c2csc(N3C[C@H]4CC[C@@H](C3)[C@@]4(C)C(=O)O)n2)c1 [Compound 270, 8-methyl-3-{4-[5-methyl-2-(2-methyl-4-morpholin-4-ylmethyl-benzyloxy)-phenyl]-thiazol-2-yl}-3-aza-bicyclo[3.2.1]octane-8(syn)-carboxylic acid] | – | 17 (≈ 30.3 µM) | > 56 | 96
3 | Cc1ccc(OCc2ccc(C(C)N3CCOCC3)cc2C)c(-c2csc(N3CC4CCC(C3)C4C(=O)O)n2)c1 (stereo not drawn) [Compound 276] | 1.9 (≈ 3.38 µM) | 32 (≈ 57 µM) | 41 (≈ 73 µM) | 45
4 | COc1cc(CN2CCOCC2)ccc1COc1ccc(C)cc1-c1csc(N2CCC(C(=O)O)CC2)n1 [Compound 278] | – | > 53 | 30 (≈ 55.8 µM) | 51
5 | Cc1ccc(OCc2ccc(CN3CCOCC3)cc2OC(F)(F)F)c(-c2csc(N3C[C@H]4CC[C@@H](C3)[C@H]4C(=O)O)n2)c1 [Compound 280] | 0.9 (≈ 1.46 µM) | 0.72 (≈ 1.17 µM) | – | 16
6 | Cc1ccc(OCc2ccc(C(=O)N3CCOCC3)c(C)c2)c(-c2csc(N3C[C@H]4CC[C@@H](C3)[C@H]4C(=O)O)n2)c1 [Compound 281] | 4.6 (≈ 8.19 µM) | < 0.1 | – | 28
7 | Cc1ccc(OCc2c(C)cc(C(=O)N3CCCCC3)cc2C)c(-c2csc(N3C[C@H]4CC[C@@H](C3)[C@H]4C(=O)O)n2)c1 [Compound 282] | 0.89 (≈ 1.55 µM) | < 0.1 | – | 39
8 | Cc1ccc(OCc2ccc(C(=O)N3CCCCC3)c(C)c2)c(-c2csc(N3C[C@H]4CC[C@@H](C3)[C@H]4C(=O)O)n2)c1 [Compound 283] | 0.1 (≈ 0.179 µM) | < 0.1 | – | 60
9 | Cc1ccc(OCc2c(C)cc(C(=O)N3CCN(C)C(=O)C3)cc2C)c(-c2csc(N3C[C@H]4CC[C@@H](C3)[C@H]4C(=O)O)n2)c1 [Compound 284] | 66 (≈ 109 µM) | 0.65 (≈ 1.08 µM) | – | 100
10 | Cc1ccc(OCc2c(C)cc(C(=O)N3CCOCC3)cc2C)c(-c2csc(N3C[C@H]4CC[C@@H](C3)[C@H]4C(=O)O)n2)c1 [Compound 285] | 54 (≈ 93.8 µM) | < 0.1 | – | 120
11 | Cc1ccc(OCc2ccc(C(=O)N3CCN(C)C(=O)C3)c(C)c2)c(-c2csc(N3C[C@H]4CC[C@@H](C3)[C@H]4C(=O)O)n2)c1 [Compound 286] | 83 (≈ 141 µM) | 1 (≈ 1.7 µM) | – | 37
12 | CCc1cc(C(=O)N2CCCCC2)ccc1COc1ccc(C)cc1-c1csc(N2C[C@H]3CC[C@@H](C2)[C@H]3C(=O)O)n1 [Compound 287] | 21 (≈ 36.6 µM) | < 0.1 | – | 6.2
13 | CCc1cc(C(=O)N2CCOCC2)ccc1COc1ccc(C)cc1-c1csc(N2C[C@H]3CC[C@@H](C2)[C@H]3C(=O)O)n1 [Compound 288] | 29 (≈ 50.4 µM) | < 0.1 | – | 9.7
14 | Cc1ccc(OCc2ccc(CN3CCN(C)C(=O)C3)cc2C)c(-c2csc(N3CC4CCC(C3)C4C(=O)O)n2)c1 (stereo not drawn) [Compound 289] | 35 (≈ 60.9 µM) | 1.5 (≈ 2.61 µM) | – | 3.4
15 | Cc1ccc(OCc2ccc(CN3CCN(C)C(=O)C3C)cc2C)c(-c2csc(N3CC4CCC(C3)C4C(=O)O)n2)c1 (stereo not drawn) [Compound 290] | 21 (≈ 35.7 µM) | 0.69 (≈ 1.17 µM) | – | 4.3
16 | CCN1CCN(Cc2ccc(COc3ccc(C)cc3-c3csc(N4CC5CCC(C4)C5C(=O)O)n3)c(C)c2)CC1=O (stereo not drawn) [Compound 291] | 13 (≈ 22.1 µM) | 0.18 (≈ 0.306 µM) | – | 7.6
17 | Cc1ccc(OCc2ccc(CN3CCN(C(C)C)C(=O)C3)cc2C)c(-c2csc(N3CC4CCC(C3)C4C(=O)O)n2)c1 (stereo not drawn) [Compound 293] | 3.4 (≈ 5.64 µM) | < 0.1 | – | 29
18 | Cc1ccc(OCc2ccc(C(=O)N3CCCCCC3)cc2C)c(-c2csc(N3C[C@H]4CC[C@@H](C3)[C@H]4C(=O)O)n2)c1 [Compound 302] | 4.6 (≈ 8.02 µM) | < 0.1 | – | 35

The next lines start with the values.

Row | solubility [1, 3] [µg/mL] | solubility [1, 4] [µg/mL] | solubility [1, 5] [µg/mL] | EC50 [2] [nM] | Compound
19 | 70 (≈ 125 µM) | < 0.1 | 38 (≈ 67.7 µM) | 7.3 | Cc1ccc(OCc2ccc(C(=O)N3CCOCC3)cc2C)c(-c2csc(N3C[C@H]4CC[C@@H](C3)[C@H]4C(=O)O)n2)c1 [Compound 268]
20 | 10 (≈ 17.9 µM) | < 0.1 | – | 50 | Cc1ccc(OCc2ccc(C(=O)N(C)CCC#N)cc2C)c(-c2csc(N3C[C@H]4CC[C@@H](C3)[C@H]4C(=O)O)n2)c1 [Compound 296]
21 | 63 (≈ 115 µM) | 1.7 (≈ 3.09 µM) | – | 100 | Cc1ccc(OCc2ccc(C(=O)N(C)CCO)cc2C)c(-c2csc(N3C[C@H]4CC[C@@H](C3)[C@H]4C(=O)O)n2)c1 [Compound 297]
22 | 66 (≈ 117 µM) | 0.32 (≈ 0.568 µM) | – | 59 | CCN(CCO)C(=O)c1ccc(COc2ccc(C)cc2-c2csc(N3C[C@H]4CC[C@@H](C3)[C@H]4C(=O)O)n2)c(C)c1 [Compound 298]
23 | 36 (≈ 66 µM) | 0.17 (≈ 0.312 µM) | – | 8.4 | Cc1ccc(OCc2ccc(C(=O)N3CCCC3)cc2C)c(-c2csc(N3C[C@H]4CC[C@@H](C3)[C@H]4C(=O)O)n2)c1 [Compound 299]
24 | 60 (≈ 104 µM) | 53 (≈ 92.2 µM) | – | 44 | Cc1ccc(OCc2ccc(C(=O)N3CCN(C)CC3)cc2C)c(-c2csc(N3C[C@H]4CC[C@@H](C3)[C@H]4C(=O)O)n2)c1 [Compound 300]
25 | 65 (≈ 113 µM) | 0.24 (≈ 0.417 µM) | – | 57 | Cc1ccc(OCc2ccc(C(=O)N3CCC(O)CC3)cc2C)c(-c2csc(N3C[C@H]4CC[C@@H](C3)[C@H]4C(=O)O)n2)c1 [Compound 301]
26 | 36 (≈ 67.5 µM) | 0.13 (≈ 0.244 µM) | – | 11 | CCN(C)C(=O)c1ccc(COc2ccc(C)cc2-c2csc(N3C[C@H]4CC[C@@H](C3)[C@H]4C(=O)O)n2)c(C)c1 [Compound 303]
27 | 60 (≈ 115 µM) | < 0.1 | – | 23 | Cc1ccc(OCc2ccc(C(=O)N(C)C)cc2C)c(-c2csc(N3C[C@H]4CC[C@@H](C3)[C@H]4C(=O)O)n2)c1 [Compound 304]
28 | 67 (≈ 116 µM) | 62 (≈ 107 µM) | – | 140 | Cc1ccc(OCc2ccc(C(=O)N(C)CCN(C)C)cc2C)c(-c2csc(N3C[C@H]4CC[C@@H](C3)[C@H]4C(=O)O)n2)c1 [Compound 305]
29 | 50 (≈ 84.8 µM) | 0.13 (≈ 0.22 µM) | 5.2 (≈ 8.82 µM) | 21 | Cc1ccc(OCc2ccc(C(=O)N(C)CC3CCCO3)cc2C)c(-c2csc(N3C[C@H]4CC[C@@H](C3)[C@H]4C(=O)O)n2)c1 (stereo partly drawn) [Compound 306]
30 | 37 (≈ 64.6 µM) | 0.15 (≈ 0.262 µM) | – | 24 | CCN(CCC#N)C(=O)c1ccc(COc2ccc(C)cc2-c2csc(N3C[C@H]4CC[C@@H](C3)[C@H]4C(=O)O)n2)c(C)c1 [Compound 307]
